In ChEMBL document CHEMBL1155064, “Discovery of aminoquinolines as a new class of potent inhibitors of heat shock protein 90 (Hsp90): Synthesis, biology, and molecular modeling” (Bioorg Med Chem, 2008):
The source made the active and inactive calls. The rule behind the calls is not given here.

Legend:
Heat shock protein HSP90 [1] = biological target: T1, Heat shock protein HSP90 (Homo sapiens, UniProt P07900+P08238); assay: Inhibition of Hsp90 in human MCF7 cell lysates assessed as interaction with Cy3b-conjugated geldanamycin by FP assay; assay type: cell-free
Heat shock protein HSP90 [2] = biological target: T1, Heat shock protein HSP90; assay: Inhibition of Hsp90 in human MCF7 cells assessed as Her2 level after 24 hrs by Western blot; assay type: cell-based
MCF7 = assay: Induction of Her2 degradation in human MCF7 cells after 24 hrs by Western blot analysis; assay type: functional, cell-based; settings: MCF7, 24 h

SMILES	IC50 (Heat shock protein HSP90 [1]) [µM]	Activity (Heat shock protein HSP90 [2])	IC50 (Heat shock protein HSP90 [2]) [µM]	IC50 (MCF7) [µM]	IC50 (Heat shock protein HSP90 [1]; read-out: IC50) [µM]
NCCCCNc1cc(O)cc2cccnc12	< 1.6	inactive			
COc1cc(NCCN(C(C)C)C(C)C)c2ncccc2c1	40	inactive			
COc1cc(NC(C)CCCNC(C)C)c2ncccc2c1OC (stereo unspecified)	44		25		
CCC(C)(C)NCCCCCNc1cc(OC)cc2cccnc12	> 50	inactive			
COc1cc(NC(C)CCCN)c2ncccc2c1Oc1ccc(Cl)cc1 (stereo unspecified)	> 50	inactive			
CCN(CC)CCCCNc1cc(O)cc2cccnc12	> 50	inactive			
COc1cc(NCCCN(C(C)C)C(C)C)c2nc(OC)cc(Cl)c2c1	> 50	inactive			
CC(CCN(C)C)Nc1cc(O)cc2cccnc12 (stereo unspecified)	0.8		30		
CCN(CC)CCCNc1cc(OC)cc2ccc(OC)nc12	14	inactive			
NCCCCCNc1cc(O)cc2cccnc12	< 1		20		
CCCCN(CCCC)CCNc1cc(OC)cc2cccnc12	40	inactive			
Br.CCN(CC)CCCCCNc1cc(O)cc2cccnc12	0.73		1	1	
COc1ccc(Oc2c(OC)cc(NCCCCCNC(C)C)c3ncccc23)cc1	> 50	inactive			
NCCCNc1cc(O)cc2cccnc12	7.6	inactive			
CCC(C)NCCNc1cc(OC)cc2cccnc12 (stereo unspecified)		inactive			3.1
CCCC(C)N(CC)CCNc1cc(OC)cc2cccnc12 (stereo unspecified)	8	inactive			
CCC(N)CCNc1cc(O)cc2cccnc12 (stereo unspecified)	< 1.6	inactive			
COc1cc(NCCN(CC(C)C)CC(C)C)c2ncccc2c1	4.9		1.6		
CC(C)NCCCCCNc1cc(O)cc2cccnc12	2.4		6		
COc1cc(NC(C)CCCNC(C)C)c2ncccc2c1 (stereo unspecified)	14.4	inactive			
COc1cc(NCCCC(C)N)c2ncccc2c1.Cl.Cl (stereo unspecified)	5.8		5		
CC(CCCN)Nc1cc(O)cc2cccnc12 (stereo unspecified)	1.8	inactive			
CCC(CC)NCCCNc1cc(OC)cc2cccnc12	40		13		
CC(C)NCCCC(C)Nc1cc(O)cc2cccnc12 (stereo unspecified)	< 1.6	inactive			
CC(N)CCCNc1cc(O)cc2cccnc12 (stereo unspecified)	< 1.6	inactive			
CCCNCCCC(C)Nc1cc(OC)cc2c(C)ccnc12 (stereo unspecified)	> 50	inactive			
CCN(CC)CCCNc1cc(OC)c(Nc2ccccc2)c2cccnc12	2.1		25		
CC(N)CCCCNc1cc(O)cc2cccnc12 (stereo unspecified)	< 1.6		20		
COc1cc(NCCCCN)c2ncccc2c1	> 50		25		
CCN(CC)CCCC(C)Nc1cc(O)cc2cccnc12 (stereo unspecified)	1.1	inactive			
